Measurements published in the CheMixHub viscosity set.
± gives the uncertainty stated by the source.

Experiment: xn = mol fraction of the nth substance listed

CCCCCCCCC(=O)O + CCCCCC(=O)[O-].[Na+]
100 kPa, x2 = 0.3
Settings	viscosity [mPa·s]
293.15 K	280.5 ± 9.5
298.15 K	209 ± 6.3
303.15 K	158.8 ± 4.1
308.15 K	122.9 ± 2.7
313.15 K	96.5 ± 1.9
318.15 K	76.9 ± 1.3
323.15 K	62.2 ± 0.9

C1CCOC1 + CCC(C)O
viscosity [mPa·s], 101 kPa
Settings	298.15 K	313.15 K
x1 = 0.0637	2.356 ± 0.049	1.464 ± 0.031
x1 = 0.1052	2.02 ± 0.042	1.309 ± 0.027
x1 = 0.1565	1.747 ± 0.036	1.153 ± 0.024
x1 = 0.2117	1.467 ± 0.031	0.9942 ± 0.021
x1 = 0.3052	1.155 ± 0.024	0.8235 ± 0.017
x1 = 0.4013	0.9585 ± 0.02	0.7044 ± 0.015
x1 = 0.4556	0.8592 ± 0.018	0.6537 ± 0.014
x1 = 0.4888	0.8108 ± 0.017	0.6218 ± 0.013
x1 = 0.5	0.8021 ± 0.021	–
x1 = 0.6054	0.6741 ± 0.014	0.5395 ± 0.011
x1 = 0.7009	0.5953 ± 0.013	0.4897 ± 0.01
x1 = 0.8036	0.533 ± 0.011	0.4512 ± 0.0096
x1 = 0.8596	0.5129 ± 0.011	0.4316 ± 0.0092
x1 = 0.9151	0.4818 ± 0.01	0.4075 ± 0.0087
x1 = 0.9497	0.4749 ± 0.01	0.4072 ± 0.0086

C1CCOC1 + CCCCO
101 kPa
Settings	viscosity [mPa·s]
298.15 K, x1 = 0.0512	2.141 ± 0.044
298.15 K, x1 = 0.102	1.844 ± 0.038
298.15 K, x1 = 0.1406	1.658 ± 0.034
298.15 K, x1 = 0.183	1.504 ± 0.031
298.15 K, x1 = 0.3126	1.154 ± 0.024
298.15 K, x1 = 0.4002	0.9777 ± 0.02
298.15 K, x1 = 0.4443	0.9072 ± 0.019
298.15 K, x1 = 0.5	0.8514 ± 0.022
298.15 K, x1 = 0.5121	0.8099 ± 0.017
298.15 K, x1 = 0.5924	0.7195 ± 0.015
298.15 K, x1 = 0.6795	0.6388 ± 0.013
298.15 K, x1 = 0.7633	0.5776 ± 0.012
298.15 K, x1 = 0.8268	0.5346 ± 0.011
298.15 K, x1 = 0.8944	0.5033 ± 0.011
298.15 K, x1 = 0.9677	0.4714 ± 0.01
313.15 K, x1 = 0.0576	1.529 ± 0.032
313.15 K, x1 = 0.1184	1.324 ± 0.028
313.15 K, x1 = 0.173	1.166 ± 0.024
313.15 K, x1 = 0.2282	1.035 ± 0.022
313.15 K, x1 = 0.3549	0.831 ± 0.017
313.15 K, x1 = 0.4542	0.7105 ± 0.015
313.15 K, x1 = 0.5481	0.6237 ± 0.013
313.15 K, x1 = 0.6462	0.5526 ± 0.012
313.15 K, x1 = 0.7386	0.4994 ± 0.01
313.15 K, x1 = 0.8296	0.4574 ± 0.0097
313.15 K, x1 = 0.8747	0.439 ± 0.0093
313.15 K, x1 = 0.9154	0.4256 ± 0.009
313.15 K, x1 = 0.9584	0.4129 ± 0.0088

c1ccc2ccccc2c1 + Clc1ccccc1
viscosity [mPa·s], 101 kPa
Settings	308.15 K	313.15 K	318.15 K	323.15 K
x1 = 0.3525	0.962 ± 0.024	0.9041 ± 0.023	0.8436 ± 0.021	0.7981 ± 0.02
x1 = 0.4003	1.011 ± 0.025	0.945 ± 0.024	0.887 ± 0.022	0.832 ± 0.021

CCCc1ccccc1 + CC(CC(C)(C)C)CC(C)(C)C
viscosity [mPa·s], 102 kPa
Settings	x1 = 0.101	x1 = 0.2003	x1 = 0.3007	x1 = 0.4005	x1 = 0.498	x1 = 0.6	x1 = 0.7	x1 = 0.8001	x1 = 0.9002
293.15 K	1.24 ± 0.02	1.16 ± 0.02	1.09 ± 0.02	1.03 ± 0.02	0.983 ± 0.021	0.939 ± 0.021	0.905 ± 0.021	0.877 ± 0.021	0.861 ± 0.021
303.15 K	1.04 ± 0.02	0.986 ± 0.021	0.929 ± 0.021	0.883 ± 0.021	0.847 ± 0.021	0.815 ± 0.021	0.787 ± 0.021	0.762 ± 0.021	0.748 ± 0.021
313.15 K	0.901 ± 0.021	0.852 ± 0.021	0.809 ± 0.021	0.773 ± 0.021	0.744 ± 0.021	0.712 ± 0.021	0.689 ± 0.021	0.666 ± 0.021	0.654 ± 0.021
323.15 K	0.785 ± 0.021	0.75 ± 0.021	0.713 ± 0.021	0.685 ± 0.021	0.656 ± 0.021	0.629 ± 0.021	0.609 ± 0.021	0.589 ± 0.021	0.578 ± 0.021

CNC(N)=O + O
viscosity [mPa·s], 101 kPa
Settings	x1 = 9.02e-05	x1 = 0.00018	x1 = 0.00027	x1 = 0.00036	x1 = 0.0005402	x1 = 0.00108	x1 = 0.001799	x1 = 0.004484
293.15 K	1.003 ± 0.0092	1.01 ± 0.0092	1.002 ± 0.0092	1.007 ± 0.0092	1.008 ± 0.0092	1.017 ± 0.0092	1.013 ± 0.0094	1.036 ± 0.0095
298.15 K	0.8881 ± 0.0083	0.8936 ± 0.0084	0.8933 ± 0.0083	0.8922 ± 0.0083	0.8992 ± 0.0084	0.9009 ± 0.0084	0.8963 ± 0.0083	0.9188 ± 0.0086
303.15 K	–	0.7986 ± 0.0076	0.7953 ± 0.0076	0.798 ± 0.0076	0.8003 ± 0.0077	0.8032 ± 0.0077	0.8075 ± 0.0075	0.8214 ± 0.0078

O=S(=O)([O-])[O-].[Mn+2] + [2H]O[2H]
viscosity [mPa·s], 101 kPa
Settings	x1 = 0.005	x1 = 0.012	x1 = 0.02	x1 = 0.029	x1 = 0.037
298.15 K	1.297 ± 0.014	1.59 ± 0.018	2.183 ± 0.024	3.14 ± 0.034	4.452 ± 0.048
308.15 K	1 ± 0.01	1.247 ± 0.014	1.696 ± 0.019	2.404 ± 0.026	3.327 ± 0.036
318.15 K	0.827 ± 0.009	1.008 ± 0.011	1.371 ± 0.015	1.912 ± 0.021	2.575 ± 0.028

CCCc1ccccc1 + C1CCCCC1
303.15 K, 101 kPa
Settings	viscosity [mPa·s]
x2 = 0.1018	0.7449 ± 0.0048
x2 = 0.2046	0.7318 ± 0.0048
x2 = 0.3024	0.7218 ± 0.0047
x2 = 0.3975	0.7149 ± 0.0047
x2 = 0.5018	0.7144 ± 0.0047
x2 = 0.6007	0.716 ± 0.0047
x2 = 0.6984	0.7272 ± 0.0048
x2 = 0.7974	0.749 ± 0.0049
x2 = 0.9039	0.7828 ± 0.005
